Assay results from EP3072956A1, “Selective culture medium for polymyxin-resistant, gram-negative bacteria” (priority 2015, dated 2016).

Tests used:
Assay in all cases: MIC determination by broth microdilution (MHB-CA, CLSI)
Format in all cases: cell-based
P. mirabilis = conditions: strain Pmir
Description: (§1) Determination of MIC values were performed by broth microdilution in Cation-Adjusted Mueller-Hinton broth (MHB-CA) according to the CLSI guidelines (Clinical and Laboratory Standards Institute). Polymyxin B and colistin (Sigma-Aldrich, Saint-Louis) were tested with or without Tween 80 over a range dilution from 0.12 to 128 µg/ml. The surfactant Tween 80, at a final concentration of 0.002%, prevents the binding of polymyxins to multi-array plastic panel. Actually, the use of Tween for determination of MIC of polymyxins is still debatable. MHB-CA broth and 5.10^5 CFU/ml of each tested strain were distributed in each well. Following the EUCAST breakpoints, strains were characterized as susceptible or resistant to polymyxins.

K. pneumoniae = tested on: K. pneumoniae
Description: as §1

H. alvei = conditions: strain ER
Description: as §1

S. marcescens = conditions: strain Smar
Description: as §1

A. baumannii = tested on: A. baumannii
Description: as §1

M. morganii = conditions: strain Mmor
Description: as §1

P. stuartii = conditions: strain Pstu
Description: as §1

B. cepacia = conditions: strain Bcep
Description: as §1

E. cloacae = tested on: E. cloacae
Description: as §1

K. oxytoca = conditions: strain C24
Description: as §1

P. aeruginosa = tested on: P. aeruginosa
Description: as §1

C. freundii = tested on: C. freundii
Description: as §1

S. maltophilia = tested on: S. maltophilia
Description: as §1

E. aerogenes = conditions: strain 36F8
Description: as §1

polymyxin B
MIC (P. mirabilis; With Tween80): >128 mg/L | MIC (P. mirabilis; Without Tween80): >128 mg/L | MIC (K. pneumoniae; strain 12E2, With Tween80): 64 mg/L | MIC (K. pneumoniae; strain 12E2, Without Tween80): 64 mg/L | MIC (K. pneumoniae; strain 13G2, With Tween80): 64 mg/L | MIC (K. pneumoniae; strain 13G2, Without Tween80): 64 mg/L | MIC (K. pneumoniae; strain 18J1, With Tween80): 32 mg/L | MIC (K. pneumoniae; strain 18J1, Without Tween80): 32 mg/L | MIC (K. pneumoniae; strain 36A4, With Tween80): 0.25 mg/L | MIC (K. pneumoniae; strain 36A4, Without Tween80): 0.25 mg/L | MIC (K. pneumoniae; strain 36A5, With Tween80): 0.12 mg/L | MIC (K. pneumoniae; strain 36A5, Without Tween80): 0.12 mg/L | MIC (K. pneumoniae; strain 36A7, With Tween80): 0.5 mg/L | MIC (K. pneumoniae; strain 36A7, Without Tween80): 0.5 mg/L | MIC (K. pneumoniae; strain 38B7, With Tween80): 0.5 mg/L | MIC (K. pneumoniae; strain 38B7, Without Tween80): 0.12 mg/L | MIC (K. pneumoniae; strain 75b, With Tween80): 128 mg/L | MIC (K. pneumoniae; strain 75b, Without Tween80): 128 mg/L | MIC (K. pneumoniae; strain 1118, With Tween80): 32 mg/L | MIC (K. pneumoniae; strain 1118, Without Tween80): 32 mg/L | MIC (K. pneumoniae; strain 1515, With Tween80): 32 mg/L | MIC (K. pneumoniae; strain 1515, Without Tween80): 32 mg/L | MIC (K. pneumoniae; strain AF1b, With Tween80): 8 mg/L | MIC (K. pneumoniae; strain AF1b, Without Tween80): 8 mg/L | MIC (K. pneumoniae; strain BICb, With Tween80): 128 mg/L | MIC (K. pneumoniae; strain BICb, Without Tween80): 128 mg/L | MIC (K. pneumoniae; strain C1, With Tween80): 64 mg/L | MIC (K. pneumoniae; strain C1, Without Tween80): 128 mg/L | MIC (K. pneumoniae; strain C3, With Tween80): 16 mg/L | MIC (K. pneumoniae; strain C3, Without Tween80): 32 mg/L | MIC (K. pneumoniae; strain C7, With Tween80): >128 mg/L | MIC (K. pneumoniae; strain C7, Without Tween80): >128 mg/L | MIC (K. pneumoniae; strain C11, With Tween80): 64 mg/L | MIC (K. pneumoniae; strain C11, Without Tween80): 128 mg/L | MIC (K. pneumoniae; strain C12, With Tween80): 64 mg/L | MIC (K. pneumoniae; strain C12, Without Tween80): 128 mg/L | MIC (K. pneumoniae; strain C16, With Tween80): 64 mg/L | MIC (K. pneumoniae; strain C16, Without Tween80): 32 mg/L | MIC (K. pneumoniae; strain C21, With Tween80): 128 mg/L | MIC (K. pneumoniae; strain C21, Without Tween80): 128 mg/L | MIC (K. pneumoniae; strain C22, With Tween80): 64 mg/L | MIC (K. pneumoniae; strain C22, Without Tween80): 64 mg/L | MIC (K. pneumoniae; strain C25, With Tween80): 32 mg/L | MIC (K. pneumoniae; strain C25, Without Tween80): 64 mg/L | MIC (K. pneumoniae; strain C26, With Tween80): 128 mg/L | MIC (K. pneumoniae; strain C26, Without Tween80): 128 mg/L | MIC (K. pneumoniae; strain C27, With Tween80): >128 mg/L | MIC (K. pneumoniae; strain C27, Without Tween80): >128 mg/L | MIC (K. pneumoniae; strain C112, With Tween80): 0.25 mg/L | MIC (K. pneumoniae; strain C112, Without Tween80): 0.25 mg/L | MIC (K. pneumoniae; strain C115, With Tween80): 0.12 mg/L | MIC (K. pneumoniae; strain C115, Without Tween80): 0.5 mg/L | MIC (K. pneumoniae; strain C130, With Tween80): 0.5 mg/L | MIC (K. pneumoniae; strain C130, Without Tween80): 0.25 mg/L | MIC (K. pneumoniae; strain C132, With Tween80): 0.5 mg/L | MIC (K. pneumoniae; strain C132, Without Tween80): 0.25 mg/L | MIC (K. pneumoniae; strain Kp OmpK3 5-OmpK3 6-, With Tween80): 0.12 mg/L | MIC (K. pneumoniae; strain Kp OmpK3 5-OmpK3 6-, Without Tween80): 0.125 mg/L | MIC (K. pneumoniae; strain Sa, With Tween80): 64 mg/L | MIC (K. pneumoniae; strain Sa, Without Tween80): 64 mg/L | MIC (K. pneumoniae; strain T1b, With Tween80): 64 mg/L | MIC (K. pneumoniae; strain T1b, Without Tween80): 64 mg/L | MIC (K. pneumoniae; strain T4, With Tween80): 32 mg/L | MIC (K. pneumoniae; strain T4, Without Tween80): 32 mg/L | MIC (K. pneumoniae; strain T5, With Tween80): 32 mg/L | MIC (K. pneumoniae; strain T5, Without Tween80): 32 mg/L | MIC (H. alvei; With Tween80): 16 mg/L | MIC (H. alvei; Without Tween80): 8 mg/L | MIC (S. marcescens; With Tween80): >128 mg/L | MIC (S. marcescens; Without Tween80): >128 mg/L | MIC (A. baumannii; strain 38B9, With Tween80): 0.25 mg/L | MIC (A. baumannii; strain 38B9, Without Tween80): 0.5 mg/L | MIC (A. baumannii; strain Aba6, With Tween80): 128 mg/L | MIC (A. baumannii; strain Aba6, Without Tween80): 128 mg/L | MIC (A. baumannii; strain C105, With Tween80): 0.12 mg/L | MIC (A. baumannii; strain C105, Without Tween80): 0.5 mg/L | MIC (M. morganii; With Tween80): >128 mg/L | MIC (M. morganii; Without Tween80): >128 mg/L | MIC (P. stuartii; With Tween80): >128 mg/L | MIC (P. stuartii; Without Tween80): >128 mg/L | MIC (B. cepacia; With Tween80): >128 mg/L | MIC (B. cepacia; Without Tween80): >128 mg/L | MIC (E. cloacae; strain 38A10, With Tween80): 0.25 mg/L | MIC (E. cloacae; strain 38A10, Without Tween80): 0.25 mg/L | MIC (E. cloacae; strain C28, With Tween80): 16 mg/L | MIC (E. cloacae; strain C28, Without Tween80): 16 mg/L | MIC (E. cloacae; strain C129, With Tween80): 0.25 mg/L | MIC (E. cloacae; strain C129, Without Tween80): 0.25 mg/L | MIC (E. cloacae; strain C144, With Tween80): 0.12 mg/L | MIC (E. cloacae; strain C144, Without Tween80): 0.25 mg/L | MIC (E. cloacae; strain HM, With Tween80): >128 mg/L | MIC (E. cloacae; strain HM, Without Tween80): >128 mg/L | MIC (K. oxytoca; With Tween80): 64 mg/L | MIC (K. oxytoca; Without Tween80): 64 mg/L | MIC (P. aeruginosa; strain 38J8, With Tween80): 0.25 mg/L | MIC (P. aeruginosa; strain 38J8, Without Tween80): 1 mg/L | MIC (P. aeruginosa; strain ATCC 27853, With Tween80): 0.12 mg/L | MIC (P. aeruginosa; strain ATCC 27853, Without Tween80): 0.5 mg/L | MIC (P. aeruginosa; strain C111, With Tween80): 0.25 mg/L | MIC (P. aeruginosa; strain C111, Without Tween80): 1 mg/L | MIC (P. aeruginosa; strain C131, With Tween80): 0.25 mg/L | MIC (P. aeruginosa; strain C131, Without Tween80): 1 mg/L | MIC (P. aeruginosa; strain C133, With Tween80): 0.5 mg/L | MIC (P. aeruginosa; strain C133, Without Tween80): 1 mg/L | MIC (C. freundii; strain 38B2, With Tween80): 0.5 mg/L | MIC (C. freundii; strain 38B2, Without Tween80): 0.5 mg/L | MIC (C. freundii; strain C136, With Tween80): 0.25 mg/L | MIC (C. freundii; strain C136, Without Tween80): 0.5 mg/L | MIC (S. maltophilia; strain Sm2, With Tween80): >128 mg/L | MIC (S. maltophilia; strain Sm2, Without Tween80): >128 mg/L | MIC (S. maltophilia; strain SmA51, With Tween80): 32 mg/L | MIC (S. maltophilia; strain SmA51, Without Tween80): 32 mg/L | MIC (E. aerogenes; With Tween80): 0.12 mg/L | MIC (E. aerogenes; Without Tween80): 0.12 mg/L
